Results taken from patent US20130281313A1, “PROGNOSTIC AND/OR PREDICTIVE BIOMARKERS AND BIOLOGICAL APPLICATIONS THEREOF” (INSTITUT GUSTAVE ROUSSY, priority 2010, published 2013).

Experiments:
A549 cells = test: Transcriptome studies (mRNA microarrays); assay type: cell-based, human
Method: NSCLC A549 cells were treated with 100 μM CDDP, 75 μM C2-CER or 100 μM CdCl2 for 12 h, or with 50 μM CDDP, C2-CER or CdCl2 for 24 h. Thereafter, cells were collected and lysed for RNA extraction of following established procedures {de La Motte Rouge, 2007}. mRNA expression changes were quantified on G4112A 44 k Whole Human Genome Oligo Microarrays (Agilent Technologies, Santa Clara, USA), as previously reported {Castedo, 2006}. mRNA microarrays underwent standardized post-hybridization processing, image acquisition and analysis (see below) {Castedo, 2006}.
Data from microarray experiments were analyzed with the Rosetta Resolver® System (Rosetta Biosoftware, Seattle, USA). The threshold for statistical significance of probe signals (Intensity) was set at p=10^−5. […] For each mRNA, fold change (FC) was then defined as Intensitysample/Intensitycontrol when Intensitysample>Intensitycontrol, or as—(Intensitycontrol/Intensitysample) when Intensitysample<Intensitycontrol. Ratios were calculated as Intensitysample/Intensitycontrol.

[1] = test system: isolated rat liver mitochondria; test: Large-amplitude swelling of isolated mitochondria; conditions: cell-free experiments
Method: Mitochondria were isolated from the liver of male Wistar Kyoto rats (Charles River Laboratories Inc., Wilmington, USA) by differential centrifugation, as previously described {Zischka, 2008}. Briefly, immediately after organ collection, livers were homogenized with a glass teflon homogenizer in an isolation buffer containing 10 mM triethanolamine, 10 mM acetic acid, 280 mM sucrose, 0.2 mM EGTA (pH adjusted to 7.4 with KOH). Homogenates were cleared from debris and nuclei by two rounds of centrifugation at 750 G (10 min, 4° C.). […]
For large-amplitude swelling determinations, mitochondria were resuspended in swelling buffer (10 mM Tris-MOPS pH 7.4, 200 mM sucrose, 5 mM succinate, 1 mM phosphate, 10 μM EGTA and 2 μM rotenone) and pre-incubated for 5 min at RT with swelling buffer (negative control) or either of the following permeability transition inhibitors: 5 or 10 μM bongkrekic acid (BA), 1 or 5 μM cyclosporine A (CsA); 0.1 or 0.5 mM reduced glutathione (GSH) or 0.5 or 2 mM N-acetylcysteine (NAC). […] Permeability transition-induced large-amplitude swelling was assessed by measuring light scattering of mitochondrial suspensions at 540 nm on a standard microplate absorbance reader (μ-Quant™, Bio-Tek, Bad Friedrichshall, Germany) every 5 min over a total assay time of 30 min (at RT), as previously described {Zischka, 2008}. […]

[2] = 12 h, 100 μM CDDP, 75 μM C2-CER or 100 μM CdCl2, vs untreated cells
[3] = 24 h, 50 μM CDDP, C2-CER or CdCl2, vs untreated cells

Compound: [Cl][Cd][Cl] [CdCl2, cadmium chloride]
- Fold change, ADAR (NM_001111) transcript (A549 cells; [2]): n.s.
- Fold change, ALDH7AT (NM_001182) transcript (A549 cells; [2]): −1.65
- Fold change, CD151 (NM_004357) transcript (A549 cells; [2]): n.s.
- Fold change, CLIC1 (NM_001288) transcript (A549 cells; [2]): 4.60
- Fold change, COMMO9 (NM_014186) transcript (A549 cells; [2]): 1.85
- Fold change, COX5B (NM_001802) transcript (A549 cells; [2]): n.s.
- Fold change, COX7C (NM_001867) transcript (A549 cells; [2]): n.s.
- Fold change, DHRSX (NM_145177) transcript (A549 cells; [2]): 1.64
- Fold change, EBP (NM_006579) transcript (A549 cells; [2]): n.s.
- Fold change, EEF2 (NM_001901) transcript (A549 cells; [2]): n.s.
- Fold change, FDXK (NM_003681) transcript (A549 cells; [2]): n.s.
- Fold change, FN3KRP (NM_024619) transcript (A549 cells; [2]): −3.34
- Fold change, HDLBP (NM_005336) transcript (A549 cells; [2]): n.s.
- Fold change, HGD (NM_000187) transcript (A549 cells; [2]): −2.37
- Fold change, IL6R (NM_000565) transcript (A549 cells; [2]): n.s.
- Fold change, KHSRP (NM_003685) transcript (A549 cells; [2]): n.s.
- Fold change, LOC389727 (NM_372092) transcript (A549 cells; [2]): 2.09
- Fold change, MAT2A (NM_005911) transcript (A549 cells; [2]): −4.30
- Fold change, MOL1 (NM_021960) transcript (A549 cells; [2]): 1.37
- Fold change, MPP6 (NM_016447) transcript (A549 cells; [2]): −3.80
- Fold change, OSTCL (NM_145303) transcript (A549 cells; [2]): n.s.
- Fold change, P5MC5 (NM_002805) transcript (A549 cells; [2]): n.s.
- Fold change, PLK1S1 (NM_018474) transcript (A549 cells; [2]): n.s.
- Fold change, PPM1J (NM_005167) transcript (A549 cells; [2]): n.s.
- Fold change, RNF26 (NM_032015) transcript (A549 cells; [2]): −1.77
- Fold change, RRAD (NM_004185) transcript (A549 cells; [2]): 3.33
- Fold change, SEMA3G (NM_000379) transcript (A549 cells; [2]): n.s.
- Fold change, SLC22A16AS (NM_007105) transcript (A549 cells; [2]): −1.43
- Fold change, SOCS6 (NM_004232) transcript (A549 cells; [2]): n.s.
- Fold change, TMED1 (NM_006858) transcript (A549 cells; [2]): n.s.
- Fold change, TRIP4 (NM_016213) transcript (A549 cells; [2]): n.s.
- Fold change, UBE2L3 (NM_003347) transcript (A549 cells; [2]): n.s.
- Fold change, UBE21 (NM_014176) transcript (A549 cells; [2]): −2.06
- Fold change, W282 (NM_018029) transcript (A549 cells; [2]): 1.32
- Fold change, ADAR (NM_001111) transcript (A549 cells; [3]): −1.33
- Fold change, ALDH7AT (NM_001182) transcript (A549 cells; [3]): −1.82
- Fold change, CD151 (NM_004357) transcript (A549 cells; [3]): n.s.
- Fold change, CLIC1 (NM_001288) transcript (A549 cells; [3]): −1.29
- Fold change, COMMO9 (NM_014186) transcript (A549 cells; [3]): 1.87
- Fold change, COX5B (NM_001802) transcript (A549 cells; [3]): n.s.
- Fold change, COX7C (NM_001867) transcript (A549 cells; [3]): n.s.
- Fold change, DHRSX (NM_145177) transcript (A549 cells; [3]): 1.38
- Fold change, EBP (NM_006579) transcript (A549 cells; [3]): n.s.
- Fold change, EEF2 (NM_001901) transcript (A549 cells; [3]): n.s.
- Fold change, FDXK (NM_003681) transcript (A549 cells; [3]): n.s.
- Fold change, FN3KRP (NM_024619) transcript (A549 cells; [3]): −2.05
- Fold change, HDLBP (NM_005336) transcript (A549 cells; [3]): n.s.
- Fold change, HGD (NM_000187) transcript (A549 cells; [3]): −2.34
- Fold change, IL6R (NM_000565) transcript (A549 cells; [3]): n.s.
- Fold change, KHSRP (NM_003685) transcript (A549 cells; [3]): n.s.
- Fold change, LOC389727 (NM_372092) transcript (A549 cells; [3]): n.s.
- Fold change, MAT2A (NM_005911) transcript (A549 cells; [3]): −3.05
- Fold change, MOL1 (NM_021960) transcript (A549 cells; [3]): 1.07
- Fold change, MPP6 (NM_016447) transcript (A549 cells; [3]): n.s.
- Fold change, OSTCL (NM_145303) transcript (A549 cells; [3]): n.s.
- Fold change, P5MC5 (NM_002805) transcript (A549 cells; [3]): n.s.
- Fold change, PLK1S1 (NM_018474) transcript (A549 cells; [3]): n.s.
- Fold change, PPM1J (NM_005167) transcript (A549 cells; [3]): n.s.
- Fold change, RNF26 (NM_032015) transcript (A549 cells; [3]): −1.51
- Fold change, RRAD (NM_004185) transcript (A549 cells; [3]): 2.04
- Fold change, SEMA3G (NM_000379) transcript (A549 cells; [3]): n.s.
- Fold change, SLC22A16AS (NM_007105) transcript (A549 cells; [3]): −1.53
- Fold change, SOCS6 (NM_004232) transcript (A549 cells; [3]): n.s.
- Fold change, TMED1 (NM_006858) transcript (A549 cells; [3]): n.s.
- Fold change, TRIP4 (NM_016213) transcript (A549 cells; [3]): n.s.
- Fold change, UBE2L3 (NM_003347) transcript (A549 cells; [3]): n.s.
- Fold change, UBE21 (NM_014176) transcript (A549 cells; [3]): −1.50
- Fold change, W282 (NM_018029) transcript (A549 cells; [3]): n.s.
- direct mitochondrion-permeabilizing effects [1]: can mediate direct mitochondrion-permeabilizing effects
